Results: US8461151B2, “Aryl-/heteroaryl-cyclohexenyl-tetraazabenzo[e]azulenes” (Hoffmann-La Roche Inc., priority 2010, dated 2013)
pKi: −log10 of the molar value. Where a name gives a salt, the structure may show the parent alone.

Target: T1, human V1a receptor (Homo sapiens, UniProt P37288)
T1 construct: expressed in transfected cells; host or cells: HEK293 cells, transiently transfected; membranes
Test: human V1a receptor binding studies (3H-Vasopressin SPA, membranes of transfected HEK293 cells)
Settings: 3H-Vasopressin displacement, HEK293 cell membranes, SPA beads, 1 h at room temperature, Ki by Cheng-Prussoff from IC50, read-out: pKi (hV1a) (converted)
Experimental: The human V1a receptor was cloned by RT-PCR from total human liver RNA. The coding sequence was subcloned in an expression vector after sequencing to confirm the identity of the amplified sequence. […] Cell membranes were prepared from HEK293-cells transiently transfected with the expression vector and grown in 20 liter fermenters with the following protocol.
50 g of cells are resuspended in 30 ml freshly prepared ice cold Lysis buffer (50 mM HEPES, 1 mM EDTA, 10 mM magnesium dichloride adjusted to pH=7.4+ complete cocktail of protease inhibitor (Roche Diagnostics)). Homogenized with Polytron for 1 min and sonicated on ice for 2×2 minutes at 80% intensity (Vibracell sonicator). The preparation is centrifuged 20 min at 500 g at 4° C., the pellet is discarded and the supernatant centrifuged 1 hour at 43,000 g at 4° C. (19,000 rpm). The pellet is resuspended in 12.5 ml Lysis buffer+12.5 ml sucrose 20% and homogenized using a Polytron for 1-2 min. The protein concentration is determined by the Bradford method and aliquots are stored at −80° C. until use. For binding studies 60 mg Yttrium silicate SPA beads (Amersham®) are mixed with an aliquot of membrane in binding buffer (50 mM Tris, 120 mM sodium chloride, 5 mM potassium chloride, 2 mM calcium dichloride, 10 mM magnesium dichloride) for 15 minutes with mixing. 50 μl of bead/membrane mixture is then added to each well of a 96 well plate, followed by 50 μl of 4 nM 3H-Vasopressin (American Radiolabeled Chemicals). For total binding measurement 100 μl of binding buffer are added to the respective wells, for non-specific binding 100 μl of 8.4 mM cold vasopressin and for compound testing 100 μl of a serial dilution of each compound in 2% dimethyl sulfoxide. The plate is incubated 1 h at room temperature, centrifuged 1 min at 1000 g and counted on a Packard Top-Count. Non-specific binding counts are subtracted from each well and data is normalized to the maximum specific binding set at 100%. To calculate an IC50 the curve is fitted using a non-linear regression model (XLfit) and the Ki is calculated using the Cheng-Prussoff equation.

T1 sequence (P37288 whole entry): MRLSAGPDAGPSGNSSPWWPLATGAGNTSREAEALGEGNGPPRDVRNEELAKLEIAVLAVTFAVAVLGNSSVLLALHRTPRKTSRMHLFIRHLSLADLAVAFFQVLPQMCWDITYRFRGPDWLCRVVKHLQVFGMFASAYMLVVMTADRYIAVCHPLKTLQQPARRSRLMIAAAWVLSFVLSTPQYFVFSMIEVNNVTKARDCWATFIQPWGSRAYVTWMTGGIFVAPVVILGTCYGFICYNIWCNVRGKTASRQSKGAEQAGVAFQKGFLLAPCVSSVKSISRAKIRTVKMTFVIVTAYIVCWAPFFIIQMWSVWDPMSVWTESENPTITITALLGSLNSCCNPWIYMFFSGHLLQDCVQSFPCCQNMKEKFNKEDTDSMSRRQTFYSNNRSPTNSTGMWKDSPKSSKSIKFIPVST

Row | Structure (SMILES) | Ki
1 | Clc1ccc2c(c1)CNCc1nnc(C3CC=C(c4ccccc4)CC3)n1-2 (racemic) [Example 1, (RS)-8-Chloro-1-(4-phenyl-cyclohex-3-enyl)-5,6-dihydro-4H-2,3,5,10b-tetraaza-benzo[e]azulene hydrochloride] | 10 nM
2 | Cc1ccccc1C1=CCC(c2nnc3n2-c2ccc(Cl)cc2CNC3)CC1 (racemic) [Example 3, (RS)-8-Chloro-1-(4-o-tolyl-cyclohex-3-enyl)-5,6-dihydro-4H-2,3,5,10b-tetraaza-benzo[e]azulene hydrochloride] | 5.13 nM
3 | Cc1ccccc1C1=CCC(c2nnc3n2-c2ccc(Cl)cc2CN(C)C3)CC1 (racemic) [Example 4, (RS)-8-Chloro-5-methyl-1-(4-o-tolyl-cyclohex-3-enyl)-5,6-dihydro-4H-2,3,5,10b-tetraaza-benzo[e]azulene] | 2.09 nM
4 | CC(C)(C)OC(=O)N1Cc2cc(Cl)ccc2-n2c(nnc2C2CC=C(c3ccc(F)cc3)CC2)C1 (racemic) [Example 5, (RS)-8-Chloro-1-[4-(4-fluoro-phenyl)-cyclohex-3-enyl]-4H,6H-2,3,5,10b-tetraaza-benzo[e]azulene-5-carboxylic acid tert-butyl ester] | 8.32 nM
5 | Fc1ccc(C2=CCC(c3nnc4n3-c3ccc(Cl)cc3CNC4)CC2)cc1 (racemic) [Example 6, (RS)-8-Chloro-1-[4-(4-fluoro-phenyl)-cyclohex-3-enyl]-5,6-dihydro-4H-2,3,5,10b-tetraaza-benzo[e]azulene hydrochloride] | 29.5 nM
6 | CN1Cc2cc(Cl)ccc2-n2c(nnc2C2CC=C(c3ccc(F)cc3)CC2)C1 (racemic) [Example 7, (RS)-8-Chloro-1-[4-(4-fluoro-phenyl)-cyclohex-3-enyl]-5-methyl-5,6-dihydro-4H-2,3,5,10b-tetraaza-benzo[e]azulene] | 6.76 nM
7 | CC(C)(C)OC(=O)N1Cc2cc(Cl)ccc2-n2c(nnc2C2CC=C(c3cccc(OC(F)(F)F)c3)CC2)C1 (racemic) [Example 8, (RS)-8-Chloro-1-[4-(3-trifluoromethoxy-phenyl)-cyclohex-3-enyl]-4H,6H-2,3,5,10b-tetraaza-benzo[e]azulene-5-carboxylic acid tert-butyl ester] | 72.4 nM
8 | FC(F)(F)Oc1cccc(C2=CCC(c3nnc4n3-c3ccc(Cl)cc3CNC4)CC2)c1 (racemic) [Example 9, (RS)-8-Chloro-1-[4-(3-trifluoromethoxy-phenyl)-cyclohex-3-enyl]-5,6-dihydro-4H-2,3,5,10b-tetraaza-benzo[e]azulene hydrochloride] | 331 nM
9 | CN1Cc2cc(Cl)ccc2-n2c(nnc2C2CC=C(c3cccc(OC(F)(F)F)c3)CC2)C1 (racemic) [Example 10, (RS)-8-Chloro-5-methyl-1-[4-(3-trifluoromethoxy-phenyl)-cyclohex-3-enyl]-5,6-dihydro-4H-2,3,5,10b-tetraaza-benzo[e]azulene] | 58.9 nM
10 | CC(C)(C)OC(=O)N1Cc2cc(Cl)ccc2-n2c(nnc2C2CC=C(c3cccc(F)c3Cl)CC2)C1 (racemic) [Example 11, (RS)-8-Chloro-1-[4-(2-chloro-3-fluoro-phenyl)-cyclohex-3-enyl]-4H,6H-2,3,5,10b-tetraaza-benzo[e]azulene-5-carboxylic acid tert-butyl ester] | 8.13 nM
11 | Fc1cccc(C2=CCC(c3nnc4n3-c3ccc(Cl)cc3CNC4)CC2)c1Cl (racemic) [Example 12, (RS)-8-Chloro-1-[4-(2-chloro-3-fluoro-phenyl)-cyclohex-3-enyl]-5,6-dihydro-4H-2,3,5,10b-tetraaza-benzo[e]azulene hydrochloride] | 28.8 nM
12 | CN1Cc2cc(Cl)ccc2-n2c(nnc2C2CC=C(c3cccc(F)c3Cl)CC2)C1 (racemic) [Example 13, (RS)-8-Chloro-1-[4-(2-chloro-3-fluoro-phenyl)-cyclohex-3-enyl]-5-methyl-5,6-dihydro-4H-2,3,5,10b-tetraaza-benzo[e]azulene] | 5.75 nM
13 | CC(C)(C)OC(=O)N1Cc2cc(Cl)ccc2-n2c(nnc2C2CC=C(c3cccc4ccccc34)CC2)C1 (racemic) [Example 14, (RS)-8-Chloro-1-(4-naphthalen-1-yl-cyclohex-3-enyl)-4H,6H-2,3,5,10b-tetraaza-benzo[e]azulene-5-carboxylic acid tert-butyl ester] | 11 nM
14 | Clc1ccc2c(c1)CNCc1nnc(C3CC=C(c4cccc5ccccc45)CC3)n1-2 (racemic) [Example 15, (RS)-8-Chloro-1-(4-naphthalen-1-yl-cyclohex-3-enyl)-5,6-dihydro-4H-2,3,5,10b-tetraaza-benzo[e]azulene hydrochloride] | 112 nM
15 | CN1Cc2cc(Cl)ccc2-n2c(nnc2C2CC=C(c3cccc4ccccc34)CC2)C1 (racemic) [Example 16, (RS)-8-Chloro-5-methyl-1-(4-naphthalen-1-yl-cyclohex-3-enyl)-5,6-dihydro-4H-2,3,5,10b-tetraaza-benzo[e]azulene] | 19.1 nM
16 | COc1ccc(F)cc1C1=CCC(c2nnc3n2-c2ccc(Cl)cc2CN(C(=O)OC(C)(C)C)C3)CC1 (racemic) [Example 17, (RS)-8-Chloro-1-[4-(5-fluoro-2-methoxy-phenyl)-cyclohex-3-enyl]-4H,6H-2,3,5,10b-tetraaza-benzo[e]azulene-5-carboxylic acid tert-butyl ester] | 20.4 nM
17 | COc1ccc(F)cc1C1=CCC(c2nnc3n2-c2ccc(Cl)cc2CNC3)CC1 (racemic) [Example 18, (RS)-8-Chloro-1-[4-(5-fluoro-2-methoxy-phenyl)-cyclohex-3-enyl]-5,6-dihydro-4H-2,3,5,10b-tetraaza-benzo[e]azulene hydrochloride] | 97.7 nM
18 | COc1ccc(F)cc1C1=CCC(c2nnc3n2-c2ccc(Cl)cc2CN(C)C3)CC1 (racemic) [Example 19, (RS)-8-Chloro-1-[4-(5-fluoro-2-methoxy-phenyl)-cyclohex-3-enyl]-5-methyl-5,6-dihydro-4H-2,3,5,10b-tetraaza-benzo[e]azulene] | 10 nM
19 | CC(C)(C)OC(=O)N1Cc2cc(Cl)ccc2-n2c(nnc2C2CC=C(c3cccc(C#N)c3)CC2)C1 (racemic) [Example 20, (RS)-8-Chloro-1-[4-(3-cyano-phenyl)-cyclohex-3-enyl]-4H,6H-2,3,5,10b-tetraaza-benzo[e]azulene-5-carboxylic acid tert-butyl ester] | 46.8 nM
20 | N#Cc1cccc(C2=CCC(c3nnc4n3-c3ccc(Cl)cc3CNC4)CC2)c1 (racemic) [Example 21, (RS)-3-[4-(8-Chloro-5,6-dihydro-4H-2,3,5,10b-tetraaza-benzo[e]azulen-1-yl)-cyclohex-1-enyl]benzonitrile hydrochloride] | 427 nM
21 | CN1Cc2cc(Cl)ccc2-n2c(nnc2C2CC=C(c3cccc(C#N)c3)CC2)C1 (racemic) [Example 22, (RS)-3-[4-(8-Chloro-5-methyl-5,6-dihydro-4H-2,3,5,10b-tetraaza-benzo[e]azulen-1-yl)-cyclohex-1-enyl]benzonitrile] | 56.2 nM
22 | CC(C)(C)OC(=O)N1Cc2cc(Cl)ccc2-n2c(nnc2C2CC=C(c3cc(F)ccn3)CC2)C1 (racemic) [Example 25, (RS)-8-Chloro-1-[4-(4-fluoro-pyridin-2-yl)-cyclohex-3-enyl]-4H,6H-2,3,5,10b-tetraaza-benzo[e]azulene-5-carboxylic acid tert-butyl ester] | 4.68 nM
23 | Fc1ccnc(C2=CCC(c3nnc4n3-c3ccc(Cl)cc3CNC4)CC2)c1 (racemic) [Example 26, (RS)-8-Chloro-1-[4-(4-fluoro-pyridin-2-yl)-cyclohex-3-enyl]-5,6-dihydro-4H-2,3,5,10b-tetraaza-benzo[e]azulene] | 110 nM
24 | CN1Cc2cc(Cl)ccc2-n2c(nnc2C2CC=C(c3cc(F)ccn3)CC2)C1 (racemic) [Example 27, (RS)-8-Chloro-1-[4-(4-fluoro-pyridin-2-yl)-cyclohex-3-enyl]-5-methyl-5,6-dihydro-4H-2,3,5,10b-tetraaza-benzo[e]azulene] | 10.5 nM
25 | Cc1nc(C2=CCC(c3nnc4n3-c3ccc(Cl)cc3CN(C(=O)OC(C)(C)C)C4)CC2)cs1 (racemic) [Example 34, (RS)-8-Chloro-1-[4-(2-methyl-thiazol-4-yl)-cyclohex-3-enyl]-4H,6H-2,3,5,10b-tetraaza-benzo[e]azulene-5-carboxylic acid tert-butyl ester] | 3.72 nM

Same assay, conditions: pKi (hV1a), 3H-Vasopressin displacement, HEK293 cell membranes, SPA beads, 1 h at room temperature, Ki by Cheng-Prussoff from IC50

Row | Structure (SMILES) | pKi
26 | CN1Cc2cc(Cl)ccc2-n2c(nnc2C2CC=C(c3ccccc3)CC2)C1 (racemic) [Example 2, (RS)-8-Chloro-5-methyl-1-(4-phenyl-cyclohex-3-enyl)-5,6-dihydro-4H-2,3,5,10b-tetraaza-benzo[e]azulene] | 8.57
